Target: human GPR17 short isoform (Homo sapiens, UniProt Q13304)
Test: GPR17 cAMP assay (antagonist mode, TR-FRET cAMP detection)
Type: cell-based
Conditions: CHO-K1 cells stably expressing human GPR17 short isoform; with EC80 concentration of agonist MDL29,951, IBMX 0.5mM, forskolin 15µM; normalized to reference antagonist; read-out: hGPR17 cAMP IC50
Experimental: CHO-K1 cells stably expressing vector containing untagged human GPR17 short isoform (Roche) were cultured at 37°C / 5% CO2 in DMEM (Dulbecco's Modified Eagle Medium):F-12 (1:1) supplemented with 10% foetal bovine serum and 400 µg/ml Geneticin.
Changes in intracellular cyclic adenosine monophosphate (cAMP) levels were quantified using the Nano-TRF Detection Assay kit (Roche Diagnostics, Cat. No. 05214386001). This assay allows for direct cAMP quantification in a homogeneous solution. cAMP is detected based on time-resolved fluorescence energy transfer (TR-FRET) and competitive binding of ruthenylated cAMP and endogenous cAMP to an anti-cAMP monoclonal antibody labeled with AlexaFluor-700. The Ruthenium complex serves as the FRET donor and transfers energy to AlexaFluor-700. The FRET signal is inversely proportional to the cAMP concentration.
CHO-GPR17S cells were detached with Accutase and resuspended in assay buffer consisting of Hank's Balanced Salt Solution (HBSS), 10mM HEPES (4-(2-hydroxyethyl) piperazine-1-ethanesulfonic acid solution) and 0.1% bovine serum albumin (pH 7.4). The cells were seeded in black 384-well plates (Corning) at a density of 10'000 cells / 20µl assay buffer until the addition of compounds.
Test antagonist compounds were serially diluted in dimethyl sulfoxide (DMSO) and spotted in 384-well plates. The compounds were then diluted in HBSS buffer supplemented with an EC80 concentration of MDL29,951 (3-(2-Carboxy-4,6-dichloroindol-3-yl)propionic acid) (GPR17 agonist) plus 3-Isobutyl-1-methylxanthine (IBMX) (0.5mM final concentration) and added to the cells at room temperature. Forskolin (15µM final concentration) was added 5 minutes after the test compounds and the cells were incubated at room temperature for 30 minutes. The assay was stopped by adding cAMP detection mix (containing detergents for cell lysis) for 90 minutes at room temperature.
Cellular cAMP was measured using a Paradigm reader (Molecular Devices). The raw data was used to calculate the FRET signal based on the assay's P-factor as per cAMP kit instructions. The data was normalized to the maximal activity of a reference antagonist and dose response curves were fitted to the percent activity of the test compounds using a sigmoidal dose response model (Genedata Screener).
Results in the hGPR17 cAMP assay are provided for compounds of formula I in Table 1 Table 1: […]

human GPR17 short isoform, sequence (Q13304 29-367): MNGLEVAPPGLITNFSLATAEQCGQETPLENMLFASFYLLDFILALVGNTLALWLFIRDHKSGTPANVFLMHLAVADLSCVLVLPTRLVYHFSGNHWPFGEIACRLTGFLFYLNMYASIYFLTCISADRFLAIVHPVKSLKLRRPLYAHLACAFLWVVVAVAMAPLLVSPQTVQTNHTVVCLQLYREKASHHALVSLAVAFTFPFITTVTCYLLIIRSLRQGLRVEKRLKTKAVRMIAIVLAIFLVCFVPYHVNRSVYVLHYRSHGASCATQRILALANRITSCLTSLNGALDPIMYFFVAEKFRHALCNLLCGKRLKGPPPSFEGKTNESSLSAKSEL

| SMILES | IC50 [nM] |
| --- | --- |
| COc1nc(NS(=O)(=O)c2c[nH]c3c(-n4ncc(C)n4)c(Cl)ccc23)nc(OC)c1OCCF [Example 39, 6-chloro-N-[5-(2-fluoroethoxy)-4,6-dimethoxy-pyrimidin-2-yl]-7-(4-methyltriazol-2-yl)-1H-indole-3-sulfonamide] | 55 |
| COc1nc(NS(=O)(=O)c2c[nH]c3c(-n4ccnc4)cccc23)nc(OC)c1CC(F)F [Example 3, N-[5-(2,2-difluoroethyl)-4,6-dimethoxy-pyrimidin-2-yl]-7-imidazol-1-yl-1H-indole-3-sulfonamide] | 300 |
| COc1nc(NS(=O)(=O)c2c[nH]c3c(-n4cc(F)cn4)c(Cl)ccc23)nc(OC)c1OC(F)F [Example 48, 6-chloro-N-[5-(difluoromethoxy)-4,6-dimethoxy-pyrimidin-2-yl]-7-(4-fluoropyrazol-1-yl)-1H-indole-3-sulfonamide] | 69 |
| COc1nc(NS(=O)(=O)c2c[nH]c3c(-n4nccn4)c(Cl)ccc23)ncc1CC(F)F [Example 78, 6-chloro-N-[5-(2,2-difluoroethyl)-4-methoxy-pyrimidin-2-yl]-7-(triazol-2-yl)-1H-indole-3-sulfonamide] | 55 |
| COc1nc(NS(=O)(=O)c2c[nH]c3c(-n4nccn4)c(Cl)ccc23)nc(OC)c1Br [Example 63, N-(5-bromo-4,6-dimethoxy-pyrimidin-2-yl)-6-chloro-7-(triazol-2-yl)-1H-indole-3-sulfonamide] | 37 |
| COc1nc(NS(=O)(=O)c2c[nH]c3c(-n4nccn4)c(Cl)ccc23)nc(OC)c1CC(F)CF (stereo not shown) [Example 16, 6-chloro-N-[5-(2,3-difluoropropyl)-4,6-dimethoxy-pyrimidin-2-yl]-7-(triazol-2-yl)-1H-indole-3-sulfonamide] | 24 |
| COc1nc(NS(=O)(=O)c2c[nH]c3c(-n4nc(C)cc4C)cccc23)nc(OC)c1CC(F)F [Example 2, N-[5-(2,2-difluoroethyl)-4,6-dimethoxy-pyrimidin-2-yl]-7-(3,5-dimethylpyrazol-1-yl)-1H-indole-3-sulfonamide] | 32 |
| COc1nc(NS(=O)(=O)c2c[nH]c3c(-n4nccn4)c(F)ccc23)nc(OC)c1OC(F)F [Example 34, N-[5-(difluoromethoxy)-4,6-dimethoxy-pyrimidin-2-yl]-6-fluoro-7-(triazol-2-yl)-1H-indole-3-sulfonamide] | 226 |
| COc1nc(NS(=O)(=O)c2c[nH]c3c(-n4cccn4)c(Cl)ccc23)nc(OC)c1OCC(F)F [Example 65, 6-chloro-N-[5-(2,2-difluoroethoxy)-4,6-dimethoxy-pyrimidin-2-yl]-7-pyrazol-1-yl-1H-indole-3-sulfonamide] | 22 |
| COc1nc(NS(=O)(=O)c2c[nH]c3c(-n4ccc(C)n4)cccc23)nc(OC)c1CC(F)F [Example 1, N-[5-(2,2-difluoroethyl)-4,6-dimethoxy-pyrimidin-2-yl]-7-(3-methylpyrazol-1-yl)-1H-indole-3-sulfonamide] | 68 |
| COc1nc(NS(=O)(=O)c2c[nH]c3c(-n4cnnc4)c(Cl)ccc23)nc(OC)c1CC(F)F [Example 10, 6-chloro-N-[5-(2,2-difluoroethyl)-4,6-dimethoxy-pyrimidin-2-yl]-7-(1,2,4-triazol-4-yl)-1H-indole-3-sulfonamide] | 100 |
| COc1nc(NS(=O)(=O)c2c[nH]c3c(-n4cc(F)cn4)c(Cl)ccc23)nc(OC)c1OCC(F)F [Example 45, 6-chloro-N-[5-(2,2-difluoroethoxy)-4,6-dimethoxy-pyrimidin-2-yl]-7-(4-fluoropyrazol-1-yl)-1H-indole-3-sulfonamide] | 25 |
| COc1nc(NS(=O)(=O)c2c[nH]c3c(-n4nccn4)c(F)ccc23)nc(OC)c1CC(F)F [Example 32, N-[5-(2,2-difluoroethyl)-4,6-dimethoxy-pyrimidin-2-yl]-6-fluoro-7-(triazol-2-yl)-1H-indole-3-sulfonamide] | 69 |
| COc1nc(NS(=O)(=O)c2c[nH]c3c(-n4ccc(F)n4)c(Cl)ccc23)nc(OC)c1OC(F)F [Example 54, 6-chloro-N-[5-(difluoromethoxy)-4,6-dimethoxy-pyrimidin-2-yl]-7-(3-fluoropyrazol-1-yl)-1H-indole-3-sulfonamide] | 27 |
| COc1nc(NS(=O)(=O)c2c[nH]c3c(-n4cccn4)c(Br)ccc23)nc(OC)c1CC(F)F [Example 81, 6-bromo-N-[5-(2,2-difluoroethyl)-4,6-dimethoxy-pyrimidin-2-yl]-7-pyrazol-1-yl-1H-indole-3-sulfonamide] | 18 |
| [2H]C([2H])(Oc1c(OC)nc(NS(=O)(=O)c2c[nH]c3c(-n4nccn4)c(Cl)ccc23)nc1OC)C(F)F [Example 59, 6-chloro-N-[5-(1,1-dideuterio-2,2-difluoro-ethoxy)-4,6-dimethoxy-pyrimidin-2-yl]-7-(triazol-2-yl)-1H-indole-3-sulfonamide] | 74 |
| COc1nc(NS(=O)(=O)c2c[nH]c3c(-n4nccn4)c(Cl)ccc23)nc(OC)c1OCC#N [Example 60, 6-chloro-N-[5-(cyanomethoxy)-4,6-dimethoxy-pyrimidin-2-yl]-7-(triazol-2-yl)-1H-indole-3-sulfonamide] | 49 |
| COc1nc(NS(=O)(=O)c2c[nH]c3c(-n4ccnc4)c(Cl)ccc23)nc(OC)c1OCC(F)F [Example 6, 6-chloro-N-[5-(2,2-difluoroethoxy)-4,6-dimethoxy-pyrimidin-2-yl]-7-imidazol-1-yl-1H-indole-3-sulfonamide] | 50 |
| COc1nc(NS(=O)(=O)c2c[nH]c3c(-n4ccc(F)n4)c(Cl)ccc23)nc(OC)c1OCCF [Example 56, 6-chloro-N-[5-(2-fluoroethoxy)-4,6-dimethoxy-pyrimidin-2-yl]-7-(3-fluoropyrazol-1-yl)-1H-indole-3-sulfonamide] | 49 |
| COc1nc(NS(=O)(=O)c2c[nH]c3c(-n4nccn4)c(Br)ccc23)nc(OC)c1C1CC1C#N (stereo not shown) [Example 31, 6-bromo-N-[5-(2-cyanocyclopropyl)-4,6-dimethoxy-pyrimidin-2-yl]-7-(triazol-2-yl)-1H-indole-3-sulfonamide] | 30 |
| COc1nc(NS(=O)(=O)c2c[nH]c3c(-n4nccn4)c(Cl)ccc23)nc(OC)c1CC(F)F [Example 7, 6-chloro-N-[5-(2,2-difluoroethyl)-4,6-dimethoxy-pyrimidin-2-yl]-7-(triazol-2-yl)-1H-indole-3-sulfonamide] | 21 |
| COc1nc(NS(=O)(=O)c2c[nH]c3c(-n4cccn4)c(Cl)ccc23)nc(OC)c1OCC#N [Example 69, 6-chloro-N-[5-(cyanomethoxy)-4,6-dimethoxy-pyrimidin-2-yl]-7-pyrazol-1-yl-1H-indole-3-sulfonamide] | 52 |
| [2H]C([2H])(F)C([2H])([2H])Oc1c(OC)nc(NS(=O)(=O)c2c[nH]c3c(-n4cccn4)c(Br)ccc23)nc1OC [Example 84, 6-bromo-N-[4,6-dimethoxy-5-(1,1,2,2-tetradeuterio-2-fluoro-ethoxy)pyrimidin-2-yl]-7-pyrazol-1-yl-1H-indole-3-sulfonamide] | 26 |
| COc1nc(NS(=O)(=O)c2c[nH]c3c(-n4nccn4)c(Cl)ccc23)nc(OC)c1C1CC1C#N (stereo not shown) [Example 18, 6-chloro-N-[5-(2-cyanocyclopropyl)-4,6-dimethoxy-pyrimidin-2-yl]-7-(triazol-2-yl)-1H-indole-3-sulfonamide] | 25 |
| COc1nc(NS(=O)(=O)c2c[nH]c3c(-n4ccc(C)n4)c(Cl)ccc23)nc(OC)c1OCC(F)F [Example 44, 6-chloro-N-[5-(2,2-difluoroethoxy)-4,6-dimethoxy-pyrimidin-2-yl]-7-(3-methylpyrazol-1-yl)-1H-indole-3-sulfonamide] | 23 |
| COc1nc(NS(=O)(=O)c2c[nH]c3c(-n4cc(C)cn4)c(Cl)ccc23)nc(OC)c1OCC(F)F [Example 43, 6-chloro-N-[5-(2,2-difluoroethoxy)-4,6-dimethoxy-pyrimidin-2-yl]-7-(4-methylpyrazol-1-yl)-1H-indole-3-sulfonamide] | 29 |
| [2H]C([2H])(c1cnc(NS(=O)(=O)c2c[nH]c3c(-n4nccn4)c(Cl)ccc23)nc1OC)C(F)F [Example 79, 6-chloro-N-[5-(1,1-dideuterio-2,2-difluoroethyl)-4-methoxy-pyrimidin-2-yl]-7-(triazol-2-yl)-1H-indole-3-sulfonamide] | 36 |
| COc1nc(NS(=O)(=O)c2c[nH]c3c(-n4nccn4)c(F)ccc23)nc(OC)c1OCCF [Example 33, 6-fluoro-N-[5-(2-fluoroethoxy)-4,6-dimethoxy-pyrimidin-2-yl]-7-(triazol-2-yl)-1H-indole-3-sulfonamide] | 141 |

Source: EP4562004B1, “NOVEL 7-SUBSTITUTED INDOLE SULFONAMIDE DERIVATIVES” (F. Hoffmann-La Roche AG, priority 2022, dated 2024)
